“And” between values parts separate entries of the source, which are not always exact repeats. Identical values can stand only once.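 Five compound concentrations were applied to cells in 96-well plates for 48 hours; endpoints were derived by simple linear interpolation of the resulting dose-response curve. Abbreviation: GI50, concentration required for 50% inhibition of growth. TGI marks complete inhibition of growth.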
Columns and labels:
Assay in all cases: NCI anticancer screen, dose series, 48 h
MDA-MB-231 breast = system: MDA-MB-231 breast
RXF 393 renal = system: RXF 393 renal
A498 renal = system: A498 renal
U251 CNS = system: U251 CNS
SNB-75 CNS = system: SNB-75 CNS
HCT-15 colon = system: HCT-15 colon
OVCAR-5 ovarian = system: OVCAR-5 ovarian
786-0 renal = system: 786-0 renal
SK-MEL-2 melanoma = system: SK-MEL-2 melanoma
SW-620 colon = system: SW-620 colon

Structure (SMILES)	GI50 (MDA-MB-231 breast)	TGI (MDA-MB-231 breast)	GI50 (RXF 393 renal)	TGI (RXF 393 renal)	GI50 (A498 renal)	TGI (A498 renal)	GI50 (U251 CNS)	TGI (U251 CNS)	GI50 (SNB-75 CNS)	TGI (SNB-75 CNS)	GI50 (HCT-15 colon)	TGI (HCT-15 colon)	GI50 (OVCAR-5 ovarian)	TGI (OVCAR-5 ovarian)	GI50 (786-0 renal)	TGI (786-0 renal)	GI50 (SK-MEL-2 melanoma)	TGI (SK-MEL-2 melanoma)	GI50 (SW-620 colon)	TGI (SW-620 colon)
FC(F)(F)Oc1cccc(-c2cc(NCCCCCCNc3cc(-c4cccc(OC(F)(F)F)c4)nc4ccc(N5CCCC5)cc34)c3cc(N4CCCC4)ccc3n2)c1	1.72 µM	3.16 µM	1.65 µM	3.22 µM	2.05 µM	3.57 µM	2.11 µM	4.62 µM	1.66 µM	3.16 µM	1.84 µM	3.69 µM	1.76 µM	3.18 µM	1.8 µM	3.49 µM	1.96 µM	3.63 µM	1.81 µM	3.35 µM
CCN=c1sc2c(n1NC(=O)c1cc3ccc1CCc1ccc(cc1)CC3)C(=O)c1ccccc1C2=O	0.658 µM	2.72 µM	0.504 µM	0.976 µM	4.81 µM	20.9 µM	0.498 µM	1.04 µM	0.231 µM	0.787 µM	0.569 µM	1.21 µM	0.587 µM	1.15 µM	0.727 µM	1.62 µM	0.726 µM	1.56 µM	0.593 µM	1.29 µM
O=C1C=C[C@H](O)[C@@]2(CO)O[C@@H]12	15.5 µM	30.1 µM	4.96 µM	12 µM	18.4 µM	45.4 µM	9.26 µM	23.2 µM	11.3 µM	23.4 µM	14.3 µM	30.5 µM	15.6 µM	29 µM	16.4 µM	30 µM	14.6 µM	33.5 µM	2.23 µM	5.33 µM
Cn1nccc1Nc1nccc(-c2ccn([C@H](CO)c3ccc(Cl)c(F)c3)c(=O)c2)n1	5.96 µM	> 100 µM	20.4 µM	65.5 µM	1.07 µM	15.3 µM	20.8 µM	> 100 µM	24.9 µM	> 100 µM	21.3 µM	> 100 µM	2.55 µM	> 100 µM	31.4 µM	> 100 µM	0.275 µM	27.2 µM	5.02 µM	30.4 µM
CN(C)CCCC1(c2ccc(F)cc2)OCc2cc(-c3cccc4[nH]ccc34)ccc21 (stereo unspecified)	1.49 µM	2.9 µM	1.46 µM	2.88 µM	1.56 µM	2.96 µM	1.52 µM	2.89 µM	1.27 µM	3.37 µM	1.83 µM	3.42 µM	1.71 µM	3.27 µM	1.63 µM	3.24 µM	1.79 µM	3.59 µM	1.77 µM	3.54 µM
CCn1cc(C(=O)O)c(=O)c2cc(F)c(N3CCN(S(=O)(=O)c4cccc5ccccc45)CC3)cc21	1.91 µM	4.71 µM	3.19 µM	11.8 µM	2.74 µM	> 100 µM	3.29 µM	> 100 µM	1.89 µM	8.49 µM	3.15 µM	> 100 µM	3.38 µM	> 100 µM	4.5 µM	20.9 µM	3.55 µM	8.72 µM	3.57 µM	> 100 µM
CCN1C(=S)N(CC)C2C1NC(=S)N2/N=C/C=C/c1ccccc1OC (stereo unspecified)	0.521 µM	10.3 µM	0.092 µM	0.498 µM	0.0831 µM	0.715 µM	0.354 µM	24.4 µM	0.0935 µM	0.606 µM	0.267 µM	> 100 µM	0.442 µM	35.6 µM	0.67 µM	> 52.3 µM	0.615 µM	56.7 µM	0.338 µM	> 100 µM
COc1cc2c(N3CCN(C(=O)Nc4ccc(OC(C)C)cc4)CC3)ncnc2cc1OCCCN1CCCCC1	14.4 µM	32.4 µM	8.61 µM	23.6 µM	15 µM	40.7 µM	14 µM	41.8 µM	3.29 µM	26.4 µM	16.7 µM	36.1 µM	26.8 µM	> 90.1 µM	17.6 µM	37.8 µM	15.6 µM	32.3 µM	14.6 µM	38.8 µM
c1ccc(-c2[nH]ncc2-c2ccnc(-c3ccc(OCCn4ccnc4)cc3)c2)nc1	> 25 µM	> 25 µM	> 25 µM	> 25 µM	> 25 µM	> 25 µM	> 25 µM	> 25 µM	> 25 µM	> 25 µM	22 µM	> 25 µM	> 25 µM	> 25 µM	> 25 µM	> 25 µM	> 25 µM	> 25 µM	> 25 µM	> 25 µM
Cc1ccc(O)cc1Nc1ccnc2ccc(S(C)(=O)=O)cc12	0.507 µM	4.68 µM	0.381 µM	1.99 µM	1.75 µM	6.18 µM	5.22 µM	> 25 µM	0.106 µM	1.28 µM	11.4 µM	> 25 µM	1.41 µM	14.5 µM	1.87 µM	> 25 µM	6.91 µM	24.9 µM	15.2 µM	> 25 µM
CNCc1cccc2c1OCCOCCOCCN(C)S(=O)(=O)c1ccc(cc1)-c1cnc(N)c(n1)C(=O)N2	2.28 µM	6.44 µM	0.614 µM	2.58 µM	0.133 µM	4.04 µM	1.53 µM	3.37 µM	0.218 µM	17.6 µM	1.77 µM	7.78 µM	3.39 µM	8.57 µM	0.446 µM	1.99 µM	1.42 µM	4.27 µM	1.66 µM	4.25 µM
COc1ccc2c(c1)C(=O)c1c-2c(Nc2ccccc2OC)nc2ccccc12	> 100 µM	> 100 µM	> 100 µM	> 100 µM	> 100 µM	> 100 µM	83.2 µM	> 100 µM	> 100 µM	> 100 µM	> 100 µM	> 100 µM	> 100 µM	> 100 µM	> 100 µM	> 100 µM	> 100 µM	> 100 µM	> 100 µM	> 100 µM
CC1=C(C(=O)Nc2ccccc2)C(c2ccc(N(C)C)cc2)C(C(=O)Nc2ccccc2)=C(C)N1		> 100 µM		> 100 µM		> 100 µM		> 72.4 µM		> 100 µM		15.3 µM		99 µM		> 100 µM		> 100 µM		> 83 µM
CCCCCCN(CCCCCC)C(=S)N/N=C(\C)c1ccccn1		2.76 µM		2.78 µM		9.29 µM		1.71 µM		3.68 µM		3.4 µM		5.59 µM		2.38 µM		3.02 µM		4.77 µM
N#CC1c2ccccc2C=CN1C(=O)CCCl (stereo unspecified)	8.78 µM	23.8 µM	11.8 µM	25.9 µM	11.7 µM	25.8 µM	17.6 µM	32 µM	10.6 µM	25.3 µM	2.87 µM	9.55 µM	10.3 µM	25.9 µM	14 µM	28 µM	13.6 µM	28 µM	2.36 µM	6.53 µM
O=C1c2cccc(Oc3ccccc3)c2C(=O)c2cccc(Oc3ccccc3)c21	44.8 µM	> 100 µM	4.7 µM	36.4 µM	> 100 µM	> 100 µM	33.3 µM	> 100 µM	9.13 µM	42.7 µM	> 100 µM	> 100 µM	> 100 µM	> 100 µM	27.5 µM	> 100 µM	96.7 µM	> 100 µM	> 100 µM	> 100 µM
Cc1c(C(=N)C(C#N)C#N)c(=N)oc2c1ccc1ccccc12	19.1 µM	> 100 µM	2.76 µM	15.4 µM	9.83 µM	96 µM	14.5 µM	37.2 µM	13.6 µM	48.9 µM	13.4 µM	72.5 µM	39.5 µM	> 100 µM	29.1 µM	> 100 µM	18 µM	56.4 µM	18.4 µM	56.1 µM
Cc1cccc(NC(=O)c2sc3nc4c(cc3c2N)C(=O)CCC4)c1	0.585 µM	> 44.5 µM	0.252 µM		0.0656 µM	0.801 µM	0.316 µM	> 34.6 µM	0.272 µM	> 39.4 µM	0.156 µM	> 100 µM		> 57.7 µM	0.527 µM	> 41 µM	0.266 µM	> 54.2 µM	0.212 µM	> 65.8 µM
CC(=O)O[C@H]1C(=O)[C@@]2(C)C([C@H](OC(=O)c3ccccc3)[C@]3(O)C[C@H](OC(=O)[C@H](O)[C@@H](NC(=O)c4ccccc4)c4ccccc4)C(C)=C1C3(C)C)[C@]1(OC(C)=O)CO[C@@H]1C[C@@H]2O (stereo partly specified)	0.0343 µM	> 50 µM	0.00516 µM	0.0382 µM	0.0161 µM	> 50 µM	0.0111 µM	> 50 µM	< 0.005 µM	0.0186 µM	0.382 µM	> 50 µM	0.0226 µM	> 50 µM	0.0465 µM	> 50 µM	0.0149 µM	> 50 µM	< 0.005 µM	> 50 µM
CC(C)(CO)CNC(=O)c1ccc2[nH]c(O)c(N=Nc3ccc(S(N)(=O)=O)cc3)c2c1	> 25 µM	> 25 µM	> 25 µM	> 25 µM	> 25 µM	> 25 µM	> 25 µM	> 25 µM	> 25 µM	> 25 µM	> 25 µM	> 25 µM	> 25 µM	> 25 µM	> 25 µM	> 25 µM	> 25 µM	> 25 µM	> 25 µM	> 25 µM
Cc1nn(-c2ccc(Cl)cc2)c2ncnc(N/N=C/c3ccccc3O)c12	0.694 µM and 0.375 µM	> 65.3 µM	1.97 µM and 0.683 µM	21.7 µM and 11.3 µM	12.3 µM and 3.23 µM	70.1 µM and 23.5 µM	0.508 µM and 0.37 µM	16.8 µM and 16.2 µM	4.03 µM and 0.501 µM	37.9 µM and 4.49 µM	0.407 µM and 0.331 µM	> 100 µM	4.16 µM and 2.34 µM	> 100 µM	0.768 µM and 0.509 µM	7.55 µM and 5.84 µM	1.24 µM and 1.59 µM	37.2 µM and > 100 µM	1.35 µM and 0.505 µM	> 100 µM
CC(Br)C(=O)NC(CO)C(=O)O (stereo unspecified)		> 100 µM		> 100 µM		> 100 µM		> 100 µM		> 100 µM		> 100 µM		> 100 µM		> 100 µM		> 100 µM		> 100 µM
CN[C@@H](C)C(=O)N[C@H]1CN(S(=O)(=O)c2cccc(S(=O)(=O)N3CC[C@H]4CC[C@@H](C(=O)NC(c5ccccc5)c5ccccc5)N4C(=O)[C@@H](NC(=O)[C@H](C)NC)C3)c2)CC[C@H]2CC[C@@H](C(=O)NC(c3ccccc3)c3ccccc3)N2C1=O	< 0.0157 µM		0.165 µM	2.93 µM	32.6 µM	> 67.7 µM	24.4 µM	63.8 µM		0.721 µM	> 93.6 µM	> 100 µM	18.6 µM	39.9 µM	20 µM	43.8 µM	< 0.0223 µM	10.9 µM	31.7 µM	> 100 µM
COc1cc2c(cc1Nc1nc(N3CCc4ccccc43)c3cc[nH]c3n1)N(C(=O)CN(C)C)CC2	5.86 µM	12.7 µM	3.55 µM	8.89 µM	8.43 µM	14.1 µM	4.67 µM	9.83 µM	4.88 µM	9.97 µM	1.25 µM	2.81 µM	1.22 µM	5.63 µM	3 µM	8.99 µM	6.01 µM	12.3 µM	0.35 µM	0.8 µM
CCCCCOc1ccc(/C=N/Nc2cc(C)nc3ccc(Cl)cc23)cc1	1.71 µM	3.23 µM	1.63 µM	3.08 µM	1.19 µM	2.47 µM	1.7 µM	3.16 µM	1.63 µM	3.22 µM	1.43 µM	2.84 µM	1.82 µM	3.23 µM	1.78 µM	3.32 µM	1.7 µM	3.17 µM	1.73 µM	3.53 µM
